Tests used:
[1] = target: T1, human calcitonin receptor (CTR) (Homo sapiens, UniProt P30988); assay: Calcitonin receptor (CTR) cAMP Assay; format: cell-based; conditions: COS7-human CTR Clone #2 cells, cAMP dynamic 2 kit; read-out: Calcitonin Receptor cAMP Stimulation Activity: EC50
T1 construct: expressed in transfected cells; host or cells: COS-7 (COS7-human CTR Clone #2)
T1 sequence (P30988 25-474): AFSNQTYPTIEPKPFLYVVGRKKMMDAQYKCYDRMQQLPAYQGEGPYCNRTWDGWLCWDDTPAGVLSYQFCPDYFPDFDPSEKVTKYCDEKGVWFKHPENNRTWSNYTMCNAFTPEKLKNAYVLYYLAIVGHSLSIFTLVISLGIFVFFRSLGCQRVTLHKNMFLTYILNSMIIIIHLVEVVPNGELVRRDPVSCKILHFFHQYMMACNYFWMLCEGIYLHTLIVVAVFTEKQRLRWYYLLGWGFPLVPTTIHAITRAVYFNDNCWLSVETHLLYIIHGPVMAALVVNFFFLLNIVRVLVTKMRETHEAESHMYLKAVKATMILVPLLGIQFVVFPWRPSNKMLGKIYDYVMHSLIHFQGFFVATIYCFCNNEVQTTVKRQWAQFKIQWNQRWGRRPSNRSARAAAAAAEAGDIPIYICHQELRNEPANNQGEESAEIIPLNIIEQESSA
From the text: Calcitonin receptor (CTR) cAMPAssay
The calcitonin receptor (CTR) belongs to the subfamily of GPCRs known as the secretin or ‘B’ family of GPCRs. Like other class B1 GPCRs, the CT receptor family is canonically coupled to Gs-mediated cAMP production, and measurement of cAMP accumulation has been the primary assay used to determine peptide selectivity and potency.
(§1) To optimize functional activity directed toward Gas coupling, COS-7 cells were stably transfected with human calcitonin receptor (CTR) to create COS7-human CTR Clone #2 stable cell line. 100× concentration of compound working solutions were prepared with 4-fold serial dilution in 384-well Echo LDV plate (Labcyte, Cat #LP-0200-BC). 200 nL/well 100×concentration of compound working solutions were moved to 384-well white microplate (Perkin Elmer, Cat #6007680) using Labcyte ECHO550. […] cells/mL COS7-human CTR Clone #2 cell suspensions prepared with assay buffer [HBSS containing 20 mM HEPES (Gibco, Cat #15630-080), 0.5 mM IBMX (Sigma, Cat #15879) and 0.1% Casein (Sigma, Cat #C4765)], 20 μL cell suspensions were added to each well of previous generated assay plate which already contains 200 nL compound at 100×concentration using ThermoFisher Multidrop Combi (2000 cells/well). Seal the plate and incubate at 37° C. with 5% CO2 for 30 min.
(§2) After incubation, the cAMP assay signal was generated using cAMP dynamic 2 kit (Revvity, Cat #62AM4PEC). 10 L cAMP-d2 working solution was added to each well, followed by 10 μL Anti-cAMP antibody-cryptate working solution which was added to each well using CERTUS FLEX LIQUID DISPENSER The samples were then incubated at room temperature for 1 hour protected from light. the fluorescence was read at 665 and 615 nm with Reader PerkinElmer EnVision 2105.

[2] = target: human calcitonin receptor (CTR) and RAMP3 (AMY3) (Homo sapiens, UniProt O60896+P30988); assay: Amylin Receptor cAMP Assay II; format: cell-based; conditions: COS-7/AMY3 cells, cAMP dynamic 2 kit, read-out: Amylin Receptor cAMP Stimulation Activity: EC50
human calcitonin receptor (CTR) and RAMP3 (AMY3), sequence (O60896 24-148, one chain of several): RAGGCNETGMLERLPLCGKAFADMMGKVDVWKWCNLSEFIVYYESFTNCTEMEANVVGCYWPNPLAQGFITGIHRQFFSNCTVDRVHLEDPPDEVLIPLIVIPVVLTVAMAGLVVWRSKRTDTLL
From the text: Amylin Receptor cAMPAssay II
AMYRs are heterodimers of the class B calcitonin (CT) G-protein-coupled receptor (CTR) and receptor activity-modifying proteins (RAMPs). All three RAMPs can interact with the CTR and form AMY1, AMY2, AMY3 with RAMP1, RAMP2 and RAMP3, respectively. Like other class B1 GPCRs, the CT receptor family is canonically coupled to Gs-mediated cAMP production, and measurement of cAMP accumulation has been the primary assay used to determine peptide selectivity and potency.
as §1, with “and RAMP3, simultaneously. 100×concentration” for “to create COS7-human CTR Clone #2 stable cell line. 100× concentration”, “COS-7/AMY3” for “COS7-human CTR Clone #2”
as §2, with “10 μL” for “10 L”

SMILES | EC50 [1] | EC50 [2]
Cc1nnc(-c2c(CCC3CCOCC3)nc3c(c2-c2cc4ncnc(N[C@@H]5CCc6ncccc65)c4s2)S(=O)(=O)CC3C(C)C)o1 (stereo partly drawn) [Compound 89, N—(R)-4-aza-1-indanyl(2-(3-isopropyl-6-(5-methyl-1,3,4-oxadiazol-2-yl)-1,1-dioxo-5-[2-(tetrahydro-2H-pyran-4-yl)ethyl]-1λ^6-thia-4-aza-7-indanyl}-1-thia-4,6-diaza-7-indenyl)amine] | 42.9 nM | 587 nM
Cc1nnc(-c2c(CCC3CCOCC3)nc3c(c2-c2cc4ccnc(N[C@@H]5CCc6ncccc65)c4o2)S(=O)(=O)CC3C(C)C)o1 (stereo partly drawn) [Compound 90, N—(R)-4-aza-1-indanyl(2-(3-isopropyl-6-(5-methyl-1,3,4-oxadiazol-2-yl)-1,1-dioxo-5-[2-(tetrahydro-2H-pyran-4-yl)ethyl]-1λ^6-thia-4-aza-7-indanyl}-1-oxa-6-aza-7-indenyl)amine] | 998 nM | 1580 nM
Cc1cc(-c2c(CCC3CCOCC3)nc3c(c2-c2cc4ccnc(N[C@@H]5CCc6ncccc65)c4s2)S(=O)(=O)CC3C(C)C)ccn1 (stereo partly drawn) [Compound 91, 7-(7-(((R)-6,7-dihydro-5H-cyclopenta[b]pyridin-5-yl)amino)thieno[2,3-c]pyridin-2-yl)-3-isopropyl-6-(2-methylpyridin-4-yl)-5-(2-(tetrahydro-2H-pyran-4-yl)ethyl)-2,3-dihydrothieno[3,2-b]pyridine 1,1-dioxide] | 45.2 nM | 499 nM
Cc1cc(-c2c(CCC3CCOCC3)nc3c(c2-c2cc4ccnc(N[C@@H]5CCc6ncccc65)c4s2)S(=O)(=O)CC3C(C)C)ncn1 (stereo partly drawn) [Compound 92, N—(R)-4-aza-1-indanyl(2-(3-isopropyl-6-(6-methyl-4-pyrimidinyl)-1,1-dioxo-5-[2-(tetrahydro-2H-pyran-4-yl)ethyl]-1λ^6-thia-4-aza-7-indanyl}-1-thia-6-aza-7-indenyl)amine] | 117 nM | 540 nM
Cc1nnc(-c2c(CCC3CCOCC3)nc3c(c2-c2cc4ccnc(N[C@H](C)c5cncc(F)c5)c4s2)S(=O)(=O)CC3C(C)C)o1 (stereo partly drawn) [Compound 93, [(R)-1-(5-fluoro-3-pyridyl)ethyl](2-(3-isopropyl-6-(5-methyl-1,3,4-oxadiazol-2-yl)-1,1-dioxo-5-[2-(tetrahydro-2H-pyran-4-yl)ethyl]-1λ^6-thia-4-aza-7-indanyl}-1-thia-6-aza-7-indenyl)amine] | 42.2 nM | 471 nM
Cc1nnc(-c2c(CCC3CCOCC3)nc3c(c2-c2cc4ccnc(N[C@@H]5CCc6ncccc65)c4s2)S(=O)(=O)CC3C)o1 (stereo partly drawn) [Compound 94, N—(R)-4-aza-1-indanyl(2-(3-methyl-6-(5-methyl-1,3,4-oxadiazol-2-yl)-1,1-dioxo-5-[2-(tetrahydro-2H-pyran-4-yl)ethyl]-1λ^6-thia-4-aza-7-indanyl}-1-thia-6-aza-7-indenyl)amine] | 179 nM | 1150 nM
Cc1nnc(-c2c(CCC3CCOCC3)nc3c(c2-c2cc4ccnc(N[C@@H]5CCc6ncccc65)c4s2)C(=O)N2CCOC[C@@H]32)o1 [Compound 95, (R)-4-(7-(((R)-6,7-dihydro-5H-cyclopenta[b]pyridin-5-yl)amino)thieno[2,3-c]pyridin-2-yl)-3-(5-methyl-1,3,4-oxadiazol-2-yl)-2-(2-(tetrahydro-2H-pyran-4-yl)ethyl)-7,8,10,10a-tetrahydro-5H-pyrido[2′,3′:3,4]pyrrolo[2,1-c][1,4]oxazin-5-one] | 35.6 nM | 857 nM
Cc1nnc(-c2c(CC3CCOCC3)nc3c(c2-c2cc4ccnc(N[C@@H]5CCc6ncccc65)c4s2)S(=O)(=O)CC3C(C)C)o1 (stereo partly drawn) [Compound 96, N—(R)-4-aza-1-indanyl(2-(3-isopropyl-6-(5-methyl-1,3,4-oxadiazol-2-yl)-1,1-dioxo-5-[(tetrahydro-2H-pyran-4-yl)methyl]-1λ^6-thia-4-aza-7-indanyl}-1-thia-6-aza-7-indenyl)amine] | 226 nM | 1300 nM
COc1noc(-c2c(CCc3ccc(F)cc3)nc3c(c2-c2cc4ccnc(N[C@@H]5CCc6c(OC)cccc65)c4s2)C(=O)N2CCC[C@@H]32)n1 [Compound 97, (S)-2-(4-fluorophenethyl)-3-(3-methoxy-1,2,4-oxadiazol-5-yl)-4-(7-(((R)-4-methoxy-2,3-dihydro-1H-inden-1-yl)amino)thieno[2,3-c]pyridin-2-yl)-7,8,9,9a-tetrahydro-5H-pyrido[2,3-a]pyrrolizin-5-one] | 20.7 nM | 318 nM
Cc1nnc(-c2c(CCC3CC(C)OC(C)C3)nc3c(c2-c2cc4ncnc(N[C@@H]5CCc6ncccc65)c4s2)S(=O)(=O)CC3C(C)C)o1 (stereo partly drawn) [Compound 98, N—(R)-4-aza-1-indanyl(2-(5-[2-(2,6-dimethyltetrahydro-2H-pyran-4-yl)ethyl]-3-isopropyl-6-(5-methyl-1,3,4-oxadiazol-2-yl)-1,1-dioxo-1λ^8-thia-4-aza-7-indanyl}-1-thia-4,6-diaza-7-indenyl)amine] | 39.2 nM | 352 nM
Cc1nnc(-c2c(CCC3CCOC3)nc3c(c2-c2cc4ncnc(N[C@@H]5CCc6ncccc65)c4s2)S(=O)(=O)CC3C(C)C)o1 (stereo partly drawn) [Compound 99, N—(R)-4-aza-1-indanyl(2-(3-isopropyl-6-(5-methyl-1,3,4-oxadiazol-2-yl)-1,1-dioxo-5-[2-(tetrahydro-3-furyl)ethyl]-1λ^6-thia-4-aza-7-indanyl}-1-thia-4,6-diaza-7-indenyl)amine] | 208 nM | 1900 nM
Cc1nnc(-c2c(CCC3CCCO3)nc3c(c2-c2cc4ncnc(N[C@@H]5CCc6ncccc65)c4s2)S(=O)(=O)CC3C(C)C)o1 (stereo partly drawn) [Compound 100, N—(R)-4-aza-1-indanyl(2-(3-isopropyl-6-(5-methyl-1,3,4-oxadiazol-2-yl)-1,1-dioxo-5-[2-(tetrahydro-2-furyl)ethyl]-1λ^6-thia-4-aza-7-indanyl}-1-thia-4,6-diaza-7-indenyl)amine] | 184 nM | 6180 nM
Cc1cnc(-c2c(CCC3CCOCC3)nc3c(c2-c2ccc4c(c2)oc(=O)n4Cc2ccc(C#N)cn2)C(=O)N2CCC[C@@H]32)o1 [Compound 101] | 2.23 nM | 38.1 nM
Cc1noc(-c2c(CCC3CCOCC3)nc3c(c2-c2cc4ccnc(N[C@@H]5CCc6ncccc65)c4s2)S(=O)(=O)CC3C(C)C)n1 (stereo partly drawn) [Compound 102, N—(R)-4-aza-1-indanyl(2-(3-isopropyl-6-(3-methyl-1,2,4-oxadiazol-5-yl)-1,1-dioxo-5-[2-(tetrahydro-2H-pyran-4-yl)ethyl]-1λ^6-thia-4-aza-7-indanyl}-1-thia-6-aza-7-indenyl)amine] | 50 nM | 265 nM
